Source: ChEMBL document CHEMBL1201862, “PubChem BioAssay data set” (2004)
Structures can show the parent of a compound that is named as a salt. Activity calls are given as the source filed them.

Key:
[1] = viability of uninfected HEp-2 cells – cell-based, HTS, cytotoxicity control for RSV inhibitor project, dose response (AID 2410); format: functional; settings: human respiratory syncytial virus
NADPH oxidase 1 = NADPH oxidase 1 (Homo sapiens, UniProt Q9Y5S8); assay: Late-stage luminescence-based cell-based dose response assay to identify inhibitors of NADPH oxidase 1 (NOX1): Synthesized analogs.; format: functional
INS1 = assay: INS-1E survival protection against cytokine death – cell-based, luminescence, retest, dose response (AID 449756); format: functional; settings: Rattus norvegicus;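 also: cell death triggered by IL-1 beta plus TNF-alpha plus IFN-gamma mixture; protective hits raise ATP signal compared with cytokine alone wells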
Protein skinhead-1 = molecular target: T1, Protein skinhead-1 (Caenorhabditis elegans, UniProt P34707); format: functional
T1 sequence (P34707 whole entry): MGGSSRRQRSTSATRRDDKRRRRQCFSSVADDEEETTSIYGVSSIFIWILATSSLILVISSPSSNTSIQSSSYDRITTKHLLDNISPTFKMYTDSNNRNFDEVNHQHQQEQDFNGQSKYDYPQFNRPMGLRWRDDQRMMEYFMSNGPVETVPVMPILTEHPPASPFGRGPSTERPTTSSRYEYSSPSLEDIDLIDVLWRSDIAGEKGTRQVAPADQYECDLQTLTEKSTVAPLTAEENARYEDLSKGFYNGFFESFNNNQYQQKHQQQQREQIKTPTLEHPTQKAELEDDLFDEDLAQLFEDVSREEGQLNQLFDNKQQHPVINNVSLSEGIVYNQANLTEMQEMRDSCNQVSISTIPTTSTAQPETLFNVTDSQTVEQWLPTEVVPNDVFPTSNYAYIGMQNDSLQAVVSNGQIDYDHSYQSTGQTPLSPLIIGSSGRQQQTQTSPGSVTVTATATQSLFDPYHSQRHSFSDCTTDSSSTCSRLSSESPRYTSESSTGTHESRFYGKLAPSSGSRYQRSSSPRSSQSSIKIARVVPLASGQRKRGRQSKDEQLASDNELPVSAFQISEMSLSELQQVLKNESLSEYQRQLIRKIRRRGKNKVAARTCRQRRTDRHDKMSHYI

[2] = viability loss in Vero cells – cytotoxicity control for Vif-APOBEC3G degradation inhibitor project, dose response (AID 1117358); format: functional; settings: Vero
[3] = molecular target: T2, Sentrin-specific protease 8 (Homo sapiens, UniProt Q96LD8); format: functional
T2 sequence (Q96LD8 whole entry): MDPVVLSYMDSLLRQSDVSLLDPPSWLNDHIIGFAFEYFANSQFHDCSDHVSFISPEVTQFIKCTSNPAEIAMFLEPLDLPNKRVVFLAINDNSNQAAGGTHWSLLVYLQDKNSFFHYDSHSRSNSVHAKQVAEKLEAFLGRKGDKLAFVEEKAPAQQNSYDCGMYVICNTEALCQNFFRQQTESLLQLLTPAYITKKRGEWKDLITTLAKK

[4] = molecular target: T2, Sentrin-specific protease 8; format: functional; remark: listed apart in the source
[5] = molecular target: T3, Histone-lysine N-methyltransferase NSD2 (Homo sapiens, UniProt O96028); format: biochemical
T3 sequence (O96028 whole entry): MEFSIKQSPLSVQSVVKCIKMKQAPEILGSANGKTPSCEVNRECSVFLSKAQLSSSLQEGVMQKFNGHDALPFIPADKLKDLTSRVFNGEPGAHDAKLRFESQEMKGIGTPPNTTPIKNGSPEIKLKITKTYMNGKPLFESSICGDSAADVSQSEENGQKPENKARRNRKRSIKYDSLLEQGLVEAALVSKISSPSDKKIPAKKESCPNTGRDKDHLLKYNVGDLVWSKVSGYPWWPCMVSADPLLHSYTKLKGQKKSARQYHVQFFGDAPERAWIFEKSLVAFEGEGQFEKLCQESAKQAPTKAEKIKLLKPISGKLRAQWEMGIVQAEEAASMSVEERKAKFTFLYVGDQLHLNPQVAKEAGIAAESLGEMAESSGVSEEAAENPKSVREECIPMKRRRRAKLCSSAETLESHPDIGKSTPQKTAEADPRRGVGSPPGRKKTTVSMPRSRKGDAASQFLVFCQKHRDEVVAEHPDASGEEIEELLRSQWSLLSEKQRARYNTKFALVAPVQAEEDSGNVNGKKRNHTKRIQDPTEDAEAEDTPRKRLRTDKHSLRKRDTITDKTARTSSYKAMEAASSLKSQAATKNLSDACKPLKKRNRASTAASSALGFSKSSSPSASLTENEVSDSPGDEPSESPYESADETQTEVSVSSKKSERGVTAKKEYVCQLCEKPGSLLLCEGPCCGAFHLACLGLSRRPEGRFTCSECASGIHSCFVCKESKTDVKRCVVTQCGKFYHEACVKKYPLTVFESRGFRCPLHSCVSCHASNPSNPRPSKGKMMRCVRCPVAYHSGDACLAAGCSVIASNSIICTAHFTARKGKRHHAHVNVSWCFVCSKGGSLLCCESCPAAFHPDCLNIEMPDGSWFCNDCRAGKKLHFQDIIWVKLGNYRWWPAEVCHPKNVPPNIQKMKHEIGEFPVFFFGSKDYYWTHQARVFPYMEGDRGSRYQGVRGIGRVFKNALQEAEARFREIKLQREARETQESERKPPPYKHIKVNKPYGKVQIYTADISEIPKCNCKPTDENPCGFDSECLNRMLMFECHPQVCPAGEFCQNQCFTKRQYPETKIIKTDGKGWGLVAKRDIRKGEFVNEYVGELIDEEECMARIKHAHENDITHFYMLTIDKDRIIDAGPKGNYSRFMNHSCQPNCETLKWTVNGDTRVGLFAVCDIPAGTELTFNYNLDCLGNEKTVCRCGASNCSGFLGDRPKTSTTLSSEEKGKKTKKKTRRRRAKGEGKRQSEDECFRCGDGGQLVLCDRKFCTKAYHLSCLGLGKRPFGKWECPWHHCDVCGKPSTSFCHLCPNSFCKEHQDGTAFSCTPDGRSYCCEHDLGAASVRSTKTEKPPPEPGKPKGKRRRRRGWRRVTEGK

[6] = molecular target: T4, Tyrosyl-DNA phosphodiesterase 2 (Homo sapiens, UniProt O95551); assay: potency against TDP2 phosphodiesterase activity – biochemical, epi absorbance, IC50, dose response (AID 743297)
T4 sequence (O95551 whole entry): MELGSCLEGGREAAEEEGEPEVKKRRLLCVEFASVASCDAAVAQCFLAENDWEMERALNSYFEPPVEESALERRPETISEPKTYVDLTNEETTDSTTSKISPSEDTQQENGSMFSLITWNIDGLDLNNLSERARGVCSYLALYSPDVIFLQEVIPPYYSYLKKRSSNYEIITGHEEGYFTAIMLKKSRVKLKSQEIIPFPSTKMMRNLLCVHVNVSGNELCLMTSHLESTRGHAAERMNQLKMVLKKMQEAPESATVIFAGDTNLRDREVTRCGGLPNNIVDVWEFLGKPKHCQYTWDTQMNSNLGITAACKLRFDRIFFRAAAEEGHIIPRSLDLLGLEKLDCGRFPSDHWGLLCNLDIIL

[7] = molecular target: Glutathione-S-transferase (Schistosoma japonicum, UniProt Q26513); assay: GST-antibody interaction or FRET quenching – biochemical, TR-FRET, artefact control for Vif-APOBEC3G degradation inhibitor project, dose response (AID 1117362); format: functional
[8] = molecular target: Sphingosine 1-phosphate receptor 2 (Homo sapiens, UniProt O95136); assay: Dose Response Cell Based Assay for Agonists of the S1P2 Receptor. [Related pubchem assays: 729, 736, 843 ]; format: functional
Bcl-2-related protein A1 = molecular target: T5, Bcl-2-related protein A1 (Mus musculus, UniProt Q07440); format: functional;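 also: confirmatory dose–response counterscreen on Bfl-1, used to check hits from a UBC13 polyubiquitin inhibitor campaign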
T5 sequence (Q07440 whole entry): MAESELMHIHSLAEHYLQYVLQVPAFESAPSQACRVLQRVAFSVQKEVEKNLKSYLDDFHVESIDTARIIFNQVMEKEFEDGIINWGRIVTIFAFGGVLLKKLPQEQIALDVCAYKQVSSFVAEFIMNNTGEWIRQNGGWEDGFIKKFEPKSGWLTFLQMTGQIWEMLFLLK

[9] = molecular target: T6, Ubiquitin-conjugating enzyme E2 N (Homo sapiens, UniProt P61088); format: functional
T6 sequence (P61088 whole entry): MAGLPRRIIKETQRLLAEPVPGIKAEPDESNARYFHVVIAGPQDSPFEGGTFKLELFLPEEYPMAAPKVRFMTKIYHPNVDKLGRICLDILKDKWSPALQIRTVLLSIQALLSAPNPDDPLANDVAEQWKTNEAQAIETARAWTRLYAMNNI

[10] = molecular target: T6, Ubiquitin-conjugating enzyme E2 N; format: functional; remark: listed apart in the source
[11] = rise of 2N DNA cells, HeLa – IC50, dose response (AID 1117349); format: functional, cell-based
[12] = CellTiter-Glo luminescence survival assay, SW480 colon tumor line, concentration-response curve, half-maximal inhibitory concentration (AID 1117338); format: functional
[13] = RKO cell viability reduction, dose response, CellTiter-Glo luminescence (AID 1117322); format: functional
[14] = cytotoxicity toward HCT116 cells – cell-based, CellTiter-Glo luminescence, IC50, dose response (AID 1117332); format: functional; settings: HCT-116
[15] = SNU-C1 cell viability reduction, dose response, CellTiter-Glo luminescence (AID 1117323); format: functional, cell-based
[16] = cytotoxicity toward Colo320 cells – cell-based, CellTiter-Glo luminescence, IC50, dose response (AID 1117334); format: functional; settings: COLO 320
[17] = rise of 4N DNA cells, HeLa – IC50, dose response (AID 1117351); format: functional, cell-based
[18] = cytotoxicity toward HT-29 cells – cell-based, CellTiter-Glo luminescence, IC50, dose response (AID 1117330); format: functional
[19] = Reduced DLD-1 viability, concentration-response, CellTiter-Glo luminescence (AID 1117352); format: functional
[20] = HCT116 cell viability decrease, GSK3B pretreatment – CellTiter-Glo, IC50, dose response (AID 1117339); format: functional; settings: HCT-116
[21] = lung carcinoma cell viability loss – CellTiter-Glo luminescence, dry powder, set 17, dose response (AID 1117284); format: functional, cell-based; settings: A549
[22] = cell lysis of Cryptococcus neoformans, alamar blue – dry powder, set 3, mechanism study for C. neoformans antifungal project, dose response (AID 743298); format: functional, organism-based
[23] = IC50 of insulin release inhibition, rat insulinoma INS-1E line, 5 mM glucose, cell-based (AID 1117331); format: functional

Sequence of Glutathione-S-transferase (Q26513 whole entry): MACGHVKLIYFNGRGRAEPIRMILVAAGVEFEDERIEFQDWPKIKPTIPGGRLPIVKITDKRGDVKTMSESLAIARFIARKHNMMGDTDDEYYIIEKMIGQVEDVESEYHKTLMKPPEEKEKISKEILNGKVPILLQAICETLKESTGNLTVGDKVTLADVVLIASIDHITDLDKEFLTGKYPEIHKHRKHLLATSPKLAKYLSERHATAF
Sequence of NADPH oxidase 1 (Q9Y5S8 whole entry): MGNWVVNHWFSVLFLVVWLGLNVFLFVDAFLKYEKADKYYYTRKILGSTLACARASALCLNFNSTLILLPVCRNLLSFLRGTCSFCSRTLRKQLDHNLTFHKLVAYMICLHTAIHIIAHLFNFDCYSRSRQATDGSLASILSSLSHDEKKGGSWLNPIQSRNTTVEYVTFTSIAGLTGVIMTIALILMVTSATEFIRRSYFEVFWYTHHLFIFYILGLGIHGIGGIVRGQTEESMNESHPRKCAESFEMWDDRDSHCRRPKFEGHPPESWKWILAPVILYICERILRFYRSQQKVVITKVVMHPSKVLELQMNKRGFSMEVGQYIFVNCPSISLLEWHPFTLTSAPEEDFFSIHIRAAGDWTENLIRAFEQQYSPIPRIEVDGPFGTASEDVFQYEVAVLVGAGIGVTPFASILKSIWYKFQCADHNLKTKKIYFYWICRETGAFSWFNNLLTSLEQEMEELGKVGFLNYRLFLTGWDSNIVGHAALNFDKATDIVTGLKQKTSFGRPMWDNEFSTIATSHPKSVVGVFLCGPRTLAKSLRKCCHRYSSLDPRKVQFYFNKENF
Sequence of Sphingosine 1-phosphate receptor 2 (O95136 whole entry): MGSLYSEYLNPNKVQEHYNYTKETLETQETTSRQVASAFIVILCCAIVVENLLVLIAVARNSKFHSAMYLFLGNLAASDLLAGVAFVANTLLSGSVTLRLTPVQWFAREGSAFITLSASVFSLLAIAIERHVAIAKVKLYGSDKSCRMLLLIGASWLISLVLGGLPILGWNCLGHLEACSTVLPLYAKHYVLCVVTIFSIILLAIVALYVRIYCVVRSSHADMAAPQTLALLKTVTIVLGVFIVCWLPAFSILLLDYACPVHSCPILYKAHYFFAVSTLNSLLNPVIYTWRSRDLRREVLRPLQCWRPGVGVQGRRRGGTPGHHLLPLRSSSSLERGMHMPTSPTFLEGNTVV

## Cc1ccc2c(c1)Sc1c(ccc3ccccc13)N2
[1]
  CC50: 47.8 µM (active)
NADPH oxidase 1
  IC50: 1.47 µM (active)
INS1
  AC50: > 260 µM (inactive)

## CSc1ccc(C2Nc3ccccc3-c3cc(C)nn32)cc1 (configuration not stated)
Protein skinhead-1
  IC50: > 100 µM (inactive)
[2]
  CC50: > 40 µM (active)

## C[n+]1cccc2cccc([O-])c21
[3]
  IC50: 1.82 µM (active)
[4]
  IC50: 1.01 µM (active)
[5]
  AC50: 15.1 µM (active)
[6]
  IC50: 60 µM (inactive)
[7]
  IC50: 42.6 µM (active)

## CCC(=O)c1cc2c(C)cc(=O)oc2c(C)c1O
[8]
  EC50: > 50 µM (not active)
Bcl-2-related protein A1
  IC50: > 20 µM (inactive)
[9]
  IC50: 10.5 µM (active)
[10]
  IC50: > 20 µM (inactive)

## NC(N)=NN=C(/C=C/c1ccc([N+](=O)[O-])o1)/C=C/c1ccc([N+](=O)[O-])o1
[11]
  IC50: > 10 µM (inactive)
[12]
  IC50: 0.0076 µM (active)
[13]
  IC50: 0.0128 µM (active)
[14]
  IC50: 0.136 µM (active)
[15]
  IC50: 1.35 µM (active)
[16]
  IC50: 0.003 µM (active)
[17]
  IC50: > 10 µM (inactive)
[18]
  IC50: 0.003 µM (active)
[19]
  IC50: > 20 µM (inactive)
[20]
  IC50: 0.0237 µM (active)

## COc1ccc(-c2ccc(CN(C)C[C@@H]3Oc4cc(C#C[C@@H](C)O)ccc4S(=O)(=O)N([C@@H](C)CO)C[C@@H]3C)cc2)cc1
[21]
  AC50: 29.8 µM (active)

## Fc1ccc(OCCn2c(=S)[nH]c3ccccc32)cc1
[22]
  AC50: 55.4 µM (active)

## CN(C)CCN1C(=O)c2ccccc2N(C)c2ccccc21 [DIBENZEPIN HYDROCHLORIDE]
[23]
  IC50: > 33.3 µM (inactive)
